Source: ChEMBL document CHEMBL5303573, “Mapping human microbiome drug metabolism by gut bacteria and their genes” (Nature, 2019)

Legend:
[1] = The drug is tested on Bifidobacterium longum subsp. Infantis strain: CCUG52486 for biotransformation. The drug concentrations were measured before and after a 12-h incubation by liquid-chromatography-coupled mass spectrometry (LC–MS); details: 2 µM
[2] = The drug is tested on Alistipes indistinctus strain: DSM22520 for biotransformation. The drug concentrations were measured before and after a 12-h incubation by liquid-chromatography-coupled mass spectrometry (LC–MS); details: 2 µM
[3] = The drug is tested on Bacteroides fragilis strain: HMW610 for biotransformation. The drug concentrations were measured before and after a 12-h incubation by liquid-chromatography-coupled mass spectrometry (LC–MS); details: 2 µM
[4] = The drug is tested on Bacteroides pectinophilus strain: ATCC43243 for biotransformation. The drug concentrations were measured before and after a 12-h incubation by liquid-chromatography-coupled mass spectrometry (LC–MS); details: 2 µM
[5] = The drug is tested on Bacteroides vulgatus strain: ATCC8482 for biotransformation. The drug concentrations were measured before and after a 12-h incubation by liquid-chromatography-coupled mass spectrometry (LC–MS); details: phocaeicola vulgatus, 2 µM
[6] = The drug is tested on Parabacteroides merdae strain: ATCC43184 for biotransformation. The drug concentrations were measured before and after a 12-h incubation by liquid-chromatography-coupled mass spectrometry (LC–MS); details: 2 µM
[7] = The drug is tested on Ruminococcus torques strain: ATCC27756 for biotransformation. The drug concentrations were measured before and after a 12-h incubation by liquid-chromatography-coupled mass spectrometry (LC–MS); type: ADME; set-up: dose 2 uM, timepoint 0 vs 12 hours; details: 2 µM
[8] = bacteroides fragilis, 12 h, 2 µM
[9] = bacteroides intestinalis, 12 h, 2 µM
[10] = bacteroides stercoris, 12 h, 2 µM
[11] = anaerostipes sp., 12 h, 2 µM
[12] = The drug is tested on Bacteroides dorei strain: DSM17855 for biotransformation. The drug concentrations were measured before and after a 12-h incubation by liquid-chromatography-coupled mass spectrometry (LC–MS); details: phocaeicola dorei, 2 µM
[13] = The drug is tested on Blautia hansenii strain: DSM20583 for biotransformation. The drug concentrations were measured before and after a 12-h incubation by liquid-chromatography-coupled mass spectrometry (LC–MS); details: 2 µM
[14] = The drug is tested on Clostridium ramosum strain: DSM1402 for biotransformation. The drug concentrations were measured before and after a 12-h incubation by liquid-chromatography-coupled mass spectrometry (LC–MS); details: thomasclavelia ramosa, 2 µM
[15] = The drug is tested on Clostridium symbiosum strain: ATCC14940 for biotransformation. The drug concentrations were measured before and after a 12-h incubation by liquid-chromatography-coupled mass spectrometry (LC–MS); details: 2 µM
[16] = The drug is tested on Eubacterium ventriosum strain: ATCC27560 for biotransformation. The drug concentrations were measured before and after a 12-h incubation by liquid-chromatography-coupled mass spectrometry (LC–MS); type: ADME; set-up: dose 2 uM, timepoint 0 vs 12 hours; details: 2 µM
[17] = enterocloster bolteae, 12 h, 2 µM
Description: The drug is tested on Clostridium bolteae strain: ATCCBAA-613 for biotransformation. The drug concentrations were measured before and after a 12-h incubation by liquid-chromatography-coupled mass spectrometry (LC–MS)

[18] = The drug is tested on Enterobacter cancerogenus strain: ATCC35316 for biotransformation. The drug concentrations were measured before and after a 12-h incubation by liquid-chromatography-coupled mass spectrometry (LC–MS); details: 2 µM
[19] = The drug is tested on Escherichia coli strain: BW25113 for biotransformation. The drug concentrations were measured before and after a 12-h incubation by liquid-chromatography-coupled mass spectrometry (LC–MS); details: 2 µM

SMILES	Bacterial Biotransformation [1]	Bacterial Biotransformation [2]	Bacterial Biotransformation [3]	Bacterial Biotransformation [4]	Bacterial Biotransformation [5]	Bacterial Biotransformation [6]	Bacterial Biotransformation [7]	Bacterial Biotransformation [8]	Bacterial Biotransformation [9]	Bacterial Biotransformation [10]	Bacterial Biotransformation [11]	Bacterial Biotransformation [12]	Bacterial Biotransformation [13]	Bacterial Biotransformation [14]	Bacterial Biotransformation [15]	Bacterial Biotransformation [16]	Bacterial Biotransformation [17]	Bacterial Biotransformation [18]	Bacterial Biotransformation [19]
COc1ccc(CCN(C)CCCC(C#N)(c2ccc(OC)c(OC)c2)C(C)C)cc1OC (centres undefined)	Compound NOT metabolized	Compound NOT metabolized	Compound NOT metabolized	Compound NOT metabolized	Compound metabolized	Compound NOT metabolized	Compound NOT metabolized	Compound NOT metabolized	Compound metabolized	Compound metabolized	Compound NOT metabolized								
O=C1CC2(CCCC2)CC(=O)N1CCCCN1CCN(c2ncccn2)CC1 [BUSPIRONE]	Compound NOT metabolized		Compound NOT metabolized	Compound NOT metabolized		Compound NOT metabolized	Compound NOT metabolized	Compound NOT metabolized	Compound NOT metabolized	Compound NOT metabolized	Compound NOT metabolized	Compound NOT metabolized	Compound NOT metabolized	Compound NOT metabolized	Compound NOT metabolized	Compound NOT metabolized	Compound NOT metabolized		
COC1=CC(=O)C[C@@H](C)[C@]12Oc1c(Cl)c(OC)cc(OC)c1C2=O [GRISEOFULVIN]	Compound NOT metabolized	Compound NOT metabolized		Compound NOT metabolized	Compound metabolized	Compound metabolized	Compound NOT metabolized	Compound metabolized			Compound NOT metabolized	Compound metabolized	Compound metabolized		Compound NOT metabolized	Compound NOT metabolized	Compound NOT metabolized		
CCN(CC)CCNC(C(=O)OCCC(C)C)c1ccccc1.Cl.Cl (centres undefined)	Compound NOT metabolized	Compound NOT metabolized	Compound NOT metabolized	Compound NOT metabolized	Compound NOT metabolized		Compound NOT metabolized	Compound NOT metabolized	Compound NOT metabolized		Compound NOT metabolized			Compound NOT metabolized	Compound NOT metabolized	Compound NOT metabolized	Compound NOT metabolized	Compound NOT metabolized	
c1ccc2[nH]c(-c3cscn3)nc2c1 [THIABENDAZOLE]	Compound NOT metabolized	Compound NOT metabolized		Compound NOT metabolized			Compound NOT metabolized	Compound NOT metabolized	Compound NOT metabolized	Compound NOT metabolized	Compound NOT metabolized	Compound NOT metabolized		Compound NOT metabolized	Compound NOT metabolized	Compound NOT metabolized	Compound NOT metabolized	Compound NOT metabolized	Compound NOT metabolized
CN(CCOc1ccc(CC2SC(=O)NC2=O)cc1)c1ccccn1.O=C(O)/C=C\C(=O)O (centres undefined) [ROSIGLITAZONE MALEATE]	Compound NOT metabolized			Compound NOT metabolized	Compound NOT metabolized	Compound NOT metabolized	Compound NOT metabolized	Compound NOT metabolized	Compound NOT metabolized	Compound NOT metabolized	Compound NOT metabolized	Compound NOT metabolized	Compound NOT metabolized		Compound NOT metabolized	Compound NOT metabolized	Compound NOT metabolized		
O=C1N=C([O-])NC1(c1ccccc1)c1ccccc1.[Na+] [PHENYTOIN SODIUM]		Compound NOT metabolized	Compound NOT metabolized	Compound NOT metabolized	Compound metabolized	Compound metabolized	Compound NOT metabolized	Compound NOT metabolized	Compound NOT metabolized	Compound NOT metabolized	Compound NOT metabolized	Compound metabolized		Compound NOT metabolized	Compound metabolized		Compound NOT metabolized		Compound NOT metabolized
COc1cc2nc(N(C)CCCNC(=O)C3CCCO3)nc(N)c2cc1OC (centres undefined) [ALFUZOSIN]	Compound NOT metabolized			Compound NOT metabolized		Compound NOT metabolized	Compound NOT metabolized	Compound NOT metabolized	Compound NOT metabolized	Compound NOT metabolized	Compound NOT metabolized	Compound metabolized	Compound NOT metabolized	Compound NOT metabolized	Compound NOT metabolized	Compound NOT metabolized	Compound NOT metabolized		Compound NOT metabolized
N#Cc1ccc2[nH]cc(CCCCN3CCN(c4ccc5oc(C(N)=O)cc5c4)CC3)c2c1 [VILAZODONE]	Compound metabolized	Compound metabolized	Compound metabolized	Compound NOT metabolized	Compound metabolized	Compound metabolized	Compound NOT metabolized	Compound metabolized	Compound metabolized	Compound metabolized	Compound NOT metabolized	Compound metabolized			Compound NOT metabolized	Compound NOT metabolized	Compound NOT metabolized	Compound NOT metabolized	
O=c1n(CCCN2CCN(c3cccc(Cl)c3)CC2)nc2ccccn12 [TRAZODONE]	Compound NOT metabolized		Compound NOT metabolized	Compound NOT metabolized	Compound NOT metabolized	Compound NOT metabolized	Compound NOT metabolized	Compound NOT metabolized	Compound NOT metabolized	Compound NOT metabolized	Compound NOT metabolized	Compound NOT metabolized			Compound NOT metabolized	Compound NOT metabolized	Compound NOT metabolized	Compound NOT metabolized	Compound NOT metabolized
Br.CN1CCC[C@@H]1Cc1c[nH]c2ccc(CCS(=O)(=O)c3ccccc3)cc12 [ELETRIPTAN HYDROBROMIDE]	Compound NOT metabolized		Compound NOT metabolized	Compound NOT metabolized	Compound NOT metabolized	Compound NOT metabolized	Compound NOT metabolized	Compound NOT metabolized	Compound NOT metabolized	Compound NOT metabolized	Compound NOT metabolized	Compound NOT metabolized		Compound NOT metabolized	Compound NOT metabolized	Compound NOT metabolized	Compound NOT metabolized		
